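How tested: cells in 96-well plates exposed to compound for 48 hours at five concentrations. GI50 is the concentration that inhibits growth by half.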 The source made the active and inactive calls. Rule as the data show it: active = GI50 up to about 1.1 µM and inactive = higher.
Columns and labels:
Assay in all cases: NCI anticancer screen, dose series, 48 h
SK-MEL-28 = system: SK-MEL-28
K562 = system: K562
IGROV-1 = system: IGROV-1
SW-620 = system: SW-620
HCT-15 = system: HCT-15
SN12C = system: SN12C
CCRF-CEM = system: CCRF-CEM
OVCAR-8 = system: OVCAR-8
SK-MEL-2 = system: SK-MEL-2
A498 = system: A498
OVCAR-4 = system: OVCAR-4
KM12 = system: KM12
HCC 2998 = system: HCC 2998
RXF 393 = system: RXF 393
HOP-62 = system: HOP-62
OVCAR-5 = system: OVCAR-5

Structure (SMILES) | GI50 (SK-MEL-28) | GI50 (K562) | GI50 (IGROV-1) | GI50 (SW-620) | GI50 (HCT-15) [µM] | GI50 (SN12C) | GI50 (CCRF-CEM) | GI50 (OVCAR-8) | GI50 (SK-MEL-2) | GI50 (A498) | GI50 (OVCAR-4) | GI50 (KM12) | GI50 (HCC 2998) | GI50 (RXF 393) | GI50 (HOP-62) | GI50 (OVCAR-5)
COc1cc2c(cc1OC)C(Cl)C(c1ccc(Cl)c(Cl)c1)=C2Cl (stereo not given) | 12 µM (inactive) | 3.22 µM (inactive) | 10.7 µM (inactive) | 6.18 µM (inactive) | 3.33 | 9.27 µM (inactive) | 3.02 µM (inactive) | 6.62 µM (inactive) | 6.84 µM (inactive) | 16.9 µM (inactive) |  |  |  |  |  | 
COc1ccc(C2SCC(=O)N2NC(=O)c2ccncc2)cc1F (stereo not given) | > 100 µM (inactive) |  |  | > 100 µM (inactive) | > 100 | > 100 µM (inactive) |  |  | > 100 µM (inactive) | > 100 µM (inactive) | > 100 µM (inactive) | > 100 µM (inactive) | > 100 µM (inactive) | > 100 µM (inactive) | > 100 µM (inactive) | > 100 µM (inactive)
O=C1C=CC2(C=C1)C[C@H](NC(=O)C(F)(F)F)C(=O)O2 | 18.5 µM (inactive) | 20.4 µM (inactive) |  |  | 31.6 | 50 µM (inactive) | 16.4 µM (inactive) | 37.2 µM (inactive) |  | > 100 µM (inactive) | > 100 µM (inactive) | 73.5 µM (inactive) | 46.9 µM (inactive) | 27.5 µM (inactive) | > 100 µM (inactive) | > 100 µM (inactive)
Cc1ccc([Se][Se]c2ccc(C)cc2)cc1 | 19.1 µM (inactive) | 5.04 µM (inactive) | 38.3 µM (inactive) | 7.62 µM (inactive) | 9.35 | 26.7 µM (inactive) | 3.48 µM (inactive) | 45.3 µM (inactive) | 45.2 µM (inactive) | > 100 µM (inactive) | 12.5 µM (inactive) | 50.2 µM (inactive) | 53.8 µM (inactive) | 19.9 µM (inactive) | > 100 µM (inactive) | 
O=c1[nH]c(Br)nc2c(N3CCCCC3)c[nH]c12 | > 100 µM (inactive) | > 100 µM (inactive) | > 100 µM (inactive) | > 100 µM (inactive) | > 100 | > 100 µM (inactive) | > 100 µM (inactive) | > 100 µM (inactive) | > 100 µM (inactive) | > 100 µM (inactive) | > 100 µM (inactive) | > 100 µM (inactive) |  | > 100 µM (inactive) | > 100 µM (inactive) | > 100 µM (inactive)
Cc1ccccc1N(CC(=O)O)S(=O)(=O)c1ccccc1 | > 100 µM (inactive) | > 100 µM (inactive) | > 100 µM (inactive) | > 100 µM (inactive) | > 100 | > 100 µM (inactive) | > 100 µM (inactive) | > 100 µM (inactive) | > 100 µM (inactive) | > 100 µM (inactive) | > 100 µM (inactive) | > 100 µM (inactive) | > 100 µM (inactive) | > 100 µM (inactive) |  | > 100 µM (inactive)
CC[C@@H](C(=O)[C@@H](C)[C@@H](O)[C@H](C)CCc1ccc(C)c(O)c1C(=O)O)[C@H]1O[C@](CC)([C@H]2CC[C@](O)(CC)[C@H](C)O2)C[C@@H]1C [LASALOCID A SODIUM] | 1.3 µM (inactive) | 0.664 µM (active) | 2.88 µM (inactive) | 2.33 µM (inactive) | 3.19 | 1.91 µM (inactive) | 0.695 µM (active) | 2.3 µM (inactive) | 1.85 µM (inactive) | 0.573 µM (active) | 3.23 µM (inactive) | 1.84 µM (inactive) | 1.05 µM (active) |  | 1.38 µM (inactive) | 6.47 µM (inactive)

From ChEMBL document CHEMBL1201862, “PubChem BioAssay data set” (2004)
